Measurements: patent US20140194477A1, “KINASE PROTEIN BINDING INHIBITORS” (Roswell Park Cancer Institute, priority 2011, published 2014)
pIC50: −log10 of the molar value.

Columns and labels:
U-87 cells = test: MTS/clonogenic antiproliferative and cell viability assay, U-87 cells; assay type: cell-based; conditions: Homo sapiens, U-87 MG, 72 hours, estimated from MTS and clonogenic assays
Procedure: (§8) MTT assay protocol: Day 1: cells plated in 96-well plates. Day 2: chemical agents (DMSO) are added to the wells containing cells(in triplicate). Day 3: 100 μM of MTS reagent is added to each well; ager incubating the plates for an hour, readings are taken using a spectrometer.

GL261 cells = test: Tumor growth in glioma syngeneic mouse model (subcutaneous GL261 cells); assay type: in vivo, mice; conditions: C4 50 mg/kg IP
Procedure: Female SCID mice were purchased six weeks old and were maintained in an animal facility, and all experiments were performed in compliance with NIH animal use guidelines using IACUC protocol. The 2x10^6 U87 cells or GL261 cells were injected into mice subcutaneously. When tumor size reached 100 mm^3, drug was introduced by IP daily, 5 days per week for several weeks. Tumor diameters were measured with calipers and tumor volume in mm^3 was calculated using this formula: tumor volume=(width)^2×Length/2. At the end of the experiment, tumor weight and volume were determined. Tumor samples were collected for Western blotting and for immunohistochemical analysis. Endpoints of anti-tumor efficacy include: 1) differences in tumor size between treated and control animals at termination of the experiment (T/C % and T-C4anal/T-C4%) and 2) differences in blood vessel density and lymphatic vessel density. One hour following the last dose, tumor tissues were snap frozen and Erk1/2, Akt, FAK and VEGFR-3 phosphorylation, as well as total protein levels (to ensure equal loading), were determined ex vivo by Western blot. Tumor tissues were sectioned and stained for total and phosphorylated FAK and VEGFR-3 in addition to TUNEL staining (apoptosis), Ki67 (proliferation), CD31 (angiogenesis) and LYVE1 (lymphangiogenesis). […] Statistical significance was determined at P<0.05.

DBTRG cells = test: MTS/clonogenic antiproliferative and cell viability assay, DBTRG cells; assay type: cell-based; conditions: 72 hours, estimated from MTS and clonogenic assays
Procedure: as §8

U87 cells = test: Tumor growth in glioblastoma mouse model (subcutaneous U87 cells); assay type: in vivo, mice; conditions: C4 50 mg/kg IP
Procedure: Female SCID mice were purchased six weeks old and were maintained in an animal facility, and all experiments were performed in compliance with NIH animal use guidelines using IACUC protocol. The 2x10^6 U87 cells or GL261 cells were injected into mice subcutaneously. When tumor size reached 100 mm^3, drug was introduced by IP daily, 5 days per week for several weeks. Tumor diameters were measured with calipers and tumor volume in mm^3 was calculated using this formula: tumor volume=(width)^2×Length/2. At the end of the experiment, tumor weight and volume were determined. Tumor samples were collected for Western blotting and for immunohistochemical analysis. Endpoints of anti-tumor efficacy include: 1) differences in tumor size between treated and control animals at termination of the experiment (T/C % and T-C4anal/T-C4%) and 2) differences in blood vessel density and lymphatic vessel density. One hour following the last dose, tumor tissues were snap frozen and Erk1/2, Akt, FAK and VEGFR-3 phosphorylation, as well as total protein levels (to ensure equal loading), were determined ex vivo by Western blot. Tumor tissues were sectioned and stained for total and phosphorylated FAK and VEGFR-3 in addition to TUNEL staining (apoptosis), Ki67 (proliferation), CD31 (angiogenesis) and LYVE1 (lymphangiogenesis). Necropsy was performed to evaluate drug toxicity. Experiments were repeated at least in triplicate, and data were reported as mean ±standard error of the mean. An ANOVA or student's t-test was used as appropriate to compare data between groups. Statistical significance was determined at P<0.05.

CD-1 mice = test: 7-day multiple-dose MTD toxicologic study of Suprastin (C4), oral gavage, CD-1 mice; assay type: in vivo
Procedure: (§1) • A 7-day, multiple-dose maximum tolerated dose toxicologic study of the drug Suprastin (C4) was performed in CD-1 mice.
(§2) • The drug Suprastin (C4) was the test article. The chemical name for Suprastin is chloropyramine hydrochloride or N-[(4-chlorophenyl) methyl]-N[2-(dimethylamino) ethyl] pyridin-2-amine. The test article was prepared in sterile water. The test article was prepared by the sponsor and delivered to the study director prior to the study. The test article was stored in the refrigerator (4° C.), protected from light. • Control article:
(§3) The CD-1 [Hsd:ICR(CD-1)] albino mouse was used. The CD-1 mouse is conventionally used in toxicity tests to provide information on which human hazards can be judged, and is one of the choices of species preferred by regulatory agencies. Mice were obtained from Harlan (Frederick, Md.).
(§4) Mice were acclimated for 2 days prior to testing. 20 male and 20 female mice, nulliparous and non-pregnant, were used. Normal weight gain, appearance and behavior were factors used to select healthy mice for testing. Only naive animals were used. Mice weighed 23-33 grams (males) and 19-26 grams (females), and were in good health at the start of the study. Mice weighed 22-35 grams (males) and 18-26 grams (females) at the conclusion of the study.
(§5) Mice were randomly assigned to 4 experimental groups (controls, low-dose, medium-dose, and high-dose) consisting of 5 males and 5 females. Mice were identified via cage cards, tail markings, and ear punch. Mouse identification codes contained information regarding experimental group (C=control, L=low-dose, IVI=medium-dose, H=high-dose), sex (M−male, F−female), and animal number (1-5).
(§6) • A 7-day multiple-dose MTD toxicology study was performed.
(§7) • The test article Suprastin (C4) was prepared in sterile water and administered orally (PO) via orogastric gavage as a single daily dose on days 0-6 in the morning. The compound was diluted with the control article (sterile water) so as not to exceed a volume of […]. The test article (Suprastin) was stored in the refrigerator (4° C.) and allowed to come to room temperature prior to administration. Mice were randomly allocated into 4 groups (controls, low-dose, medium-dose, and high-dose) consisting of 5 males and 5 females. Dosages were calculated on a “per mouse” basis, not on a mg/kg basis. Mice in the low-dose group received the equivalent of a 75 mg/kg dose for a 20 g mouse (1.5 mg). Mice in the medium-dose group received the equivalent of a 150 mg/kg dose for a 20 g mouse (3 mg). Mice in the high-dose group received the equivalent of a 300 mg/kg dose for a 20 g mouse (6 mg). Mice in the control group received 100pL of the control article (sterile water). Groups received the following doses, drug concentrations, and gavage volumes, as outlined in Table 4: […]

[1] = as above; assay type: in vivo; conditions: both sexes, CD-1, mouse, in vivo; oral gavage in mice, daily for 7 days
Procedure: as §1, §2, §3, §4, §5, §6, §7

FAK [2] = target: T1, FAK (Homo sapiens, UniProt Q05397); test: FAK Y397 phosphorylation; assay type: biochemical; conditions: various assays
[3] = literature report; cited from earlier work
FAK [4] = target: T1, FAK; conditions: literature report; cited from earlier work
glioma and ovarian tumor = conditions: literature report; cited from earlier work
IGFR kinase = IGFR kinase (Homo sapiens, UniProt P08069); conditions: literature report; cited from earlier work
Chain of IGFR kinase (P08069 31-1367): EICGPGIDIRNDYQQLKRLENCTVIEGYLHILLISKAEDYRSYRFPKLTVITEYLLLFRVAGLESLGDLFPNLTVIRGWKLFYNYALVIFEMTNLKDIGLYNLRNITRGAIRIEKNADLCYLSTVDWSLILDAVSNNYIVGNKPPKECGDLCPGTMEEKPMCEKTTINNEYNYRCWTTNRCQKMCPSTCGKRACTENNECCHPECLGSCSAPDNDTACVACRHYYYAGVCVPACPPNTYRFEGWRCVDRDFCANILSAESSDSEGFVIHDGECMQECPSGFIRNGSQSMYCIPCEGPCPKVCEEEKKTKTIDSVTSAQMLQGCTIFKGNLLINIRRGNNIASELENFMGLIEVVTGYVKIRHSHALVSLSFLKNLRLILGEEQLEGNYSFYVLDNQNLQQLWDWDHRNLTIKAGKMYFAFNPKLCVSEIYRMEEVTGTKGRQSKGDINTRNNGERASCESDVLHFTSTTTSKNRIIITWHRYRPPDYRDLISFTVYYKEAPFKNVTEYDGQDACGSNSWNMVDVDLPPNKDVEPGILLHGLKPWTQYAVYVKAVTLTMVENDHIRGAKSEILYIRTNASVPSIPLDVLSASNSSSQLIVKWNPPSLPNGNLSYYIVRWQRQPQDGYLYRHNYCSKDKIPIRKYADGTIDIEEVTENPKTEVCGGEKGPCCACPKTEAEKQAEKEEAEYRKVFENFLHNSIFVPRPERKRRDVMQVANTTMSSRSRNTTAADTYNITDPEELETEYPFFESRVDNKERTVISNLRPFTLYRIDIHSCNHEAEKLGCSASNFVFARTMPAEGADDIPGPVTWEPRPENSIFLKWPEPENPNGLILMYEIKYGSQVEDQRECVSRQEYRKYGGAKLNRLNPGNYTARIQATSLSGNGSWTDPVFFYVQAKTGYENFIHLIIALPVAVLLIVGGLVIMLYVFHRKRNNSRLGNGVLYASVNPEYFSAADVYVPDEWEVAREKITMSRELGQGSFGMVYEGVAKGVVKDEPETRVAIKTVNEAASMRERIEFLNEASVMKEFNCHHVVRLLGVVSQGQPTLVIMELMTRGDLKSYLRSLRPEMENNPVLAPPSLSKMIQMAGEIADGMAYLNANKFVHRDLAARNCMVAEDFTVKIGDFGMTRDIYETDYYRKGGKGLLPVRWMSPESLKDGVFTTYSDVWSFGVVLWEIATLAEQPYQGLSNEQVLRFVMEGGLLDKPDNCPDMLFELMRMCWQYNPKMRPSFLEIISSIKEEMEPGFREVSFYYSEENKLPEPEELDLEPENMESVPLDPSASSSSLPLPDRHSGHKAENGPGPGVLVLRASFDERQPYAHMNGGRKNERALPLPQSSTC

T1 sequence (Q05397 whole entry): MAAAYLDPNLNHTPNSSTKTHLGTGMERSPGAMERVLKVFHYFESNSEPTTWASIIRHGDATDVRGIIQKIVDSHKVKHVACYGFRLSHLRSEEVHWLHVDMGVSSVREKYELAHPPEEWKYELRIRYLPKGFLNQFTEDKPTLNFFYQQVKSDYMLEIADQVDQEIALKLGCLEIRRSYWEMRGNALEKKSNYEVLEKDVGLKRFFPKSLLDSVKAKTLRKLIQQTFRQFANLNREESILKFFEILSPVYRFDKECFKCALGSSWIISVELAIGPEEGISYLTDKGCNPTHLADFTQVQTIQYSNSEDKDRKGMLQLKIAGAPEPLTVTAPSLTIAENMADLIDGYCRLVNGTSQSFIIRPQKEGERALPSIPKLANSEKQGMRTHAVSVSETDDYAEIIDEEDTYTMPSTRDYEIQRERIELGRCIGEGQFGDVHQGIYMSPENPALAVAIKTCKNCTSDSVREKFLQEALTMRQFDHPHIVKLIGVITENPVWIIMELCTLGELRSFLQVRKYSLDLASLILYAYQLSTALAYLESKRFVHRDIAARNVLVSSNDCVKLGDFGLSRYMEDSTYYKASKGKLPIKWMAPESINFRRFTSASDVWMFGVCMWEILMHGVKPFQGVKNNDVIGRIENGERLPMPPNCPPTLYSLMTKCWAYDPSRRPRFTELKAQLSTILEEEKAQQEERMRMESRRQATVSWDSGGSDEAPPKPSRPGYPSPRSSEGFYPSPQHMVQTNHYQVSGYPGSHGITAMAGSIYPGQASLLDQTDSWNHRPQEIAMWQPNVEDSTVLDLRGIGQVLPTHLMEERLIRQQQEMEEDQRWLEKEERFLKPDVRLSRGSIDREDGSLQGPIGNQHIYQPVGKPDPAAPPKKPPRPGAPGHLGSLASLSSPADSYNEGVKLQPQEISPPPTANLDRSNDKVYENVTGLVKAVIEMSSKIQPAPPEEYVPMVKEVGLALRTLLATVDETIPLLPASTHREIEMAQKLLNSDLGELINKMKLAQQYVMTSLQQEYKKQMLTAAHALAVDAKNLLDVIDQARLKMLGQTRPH

Q: With `CN(C)CCN(Cc1ccc(Cl)cc1)c1ccccn1` [C4, N′-[(4-chlorophenyl)methyl]-N,N-dimethyl-N′-pyridin-2-yl-ethane-1,2-diamine] as the compound, how does the pIC50 (U-87 cells) read?
A: 4.00 to 4.30

Q: What about the “tumor growth reduction (tumor weight)” value (GL261 cells; after 3 weeks of treatment) of the same compound?
A: 57%

Q: And the “weight of treated tumors vs control group” value (GL261 cells; after 23 days of treatment)?
A: significantly smaller

Q: And the pIC50 (DBTRG cells)?
A: 4.00 to 4.30

Q: What about the “tumor growth reduction (tumor weight)” value (U87 cells; after 4 weeks of treatment) of the same compound?
A: 71.7%

Q: What about the “tumor volume smaller in the treated group” value (U87 cells; after 4 weeks of treatment) of the same compound?
A: 58%

Q: And the “size of treated tumors vs control group” value (U87 cells; after 9 days of treatment)?
A: significantly smaller

Q: What about the “weight of treated tumors vs control group” value (U87 cells; after 27 days of treatment) of the same compound?
A: significantly smaller

Q: And the “clinical signs, low- and medium-dose groups” value (CD-1 mice; mouse, in vivo)?
A: slight ruffled fur

Q: And the “toxicity findings, high-dose group” value (CD-1 mice; mouse, in vivo, po, 300 mg/kg)?
A: weight loss, severe clinical signs of abdominal distention, and mortality due to gastrointestinal dilatation

Q: And the “mortality and body weight, low- and medium-dose groups” value (CD-1 mice; oral gavage daily days 0-6, 75 and 150 mg/kg)?
A: no mortality or decrement in mean body weight

Q: What about the MTD at 7 days [1] of the same compound?
A: ≥ 150 mg/kg

Q: What about the FAK dephosphorylation (FAK [2]) of the same compound?
A: specifically dephosphorylates FAK

Q: With `CS(=O)(=O)c1cccc(CNc2nc(Nc3ccc4c(c3)CCC(=O)N4)ncc2C(F)(F)F)c1` [PF-573,228] as the compound, how does the “cell growth and survival in vitro” value [3] read?
A: did not inhibit cell growth and survival in vitro

Q: And the cell motility [3]?
A: inhibited only motility

Q: Which results are given for `CNC(=O)c1ccccc1Nc1nc(Nc2ccc(N3CCOCC3)cc2OC)ncc1Cl` [TAE226]?
A: Y397-FAK phosphorylation (FAK [4]): effectively blocked; tumor growth in vivo (glioma and ovarian tumor): inhibited glioma and ovarian tumor growth in vivo; IGFR kinase inhibition (IGFR kinase): inhibited IGFR kinase
